# Assays:
# Jeko-1 (SOX11+) = assay: Cell viability assay (CellTiter-Blue resazurin reduction); type: cell-based; conditions: JeKo-1 cells; for IC50: 0-40 μM
# How it was run: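 Cells were exposed to compound for 72 h, then resazurin reduction (CellTiter-Blue, 2 h) was read by fluorescence and converted to viable cell number via a standard curve. Viability was normalised to 0.2% DMSO-treated cells. IC50 came from a sigmoidal dose-response fit, three separate experiments.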
# (His)6-SOX11-DBD protein = biological target: T1, (His)6-SOX11-DBD protein (Homo sapiens, UniProt P35716); assay: Surface Plasmon Resonance (SPR) assay; type: binding; conditions: immobilized recombinant (His)6-SOX11-DBD, 25° C., compounds 5-40 μM, mean of three experiments
# T1 construct: Recombinant (His)6-SOX11-DBD protein was immobilized
# T1 sequence (P35716 49-117 limits assumed): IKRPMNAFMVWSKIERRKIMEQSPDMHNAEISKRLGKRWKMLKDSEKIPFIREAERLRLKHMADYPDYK
# [1] = Homo sapiens, JeKo-1, 72 h, 20 μM compound, normalized to 0.2% DMSO
Structure (SMILES),Kd ((His)6-SOX11-DBD protein) [µM],"IC50 (Jeko-1 (SOX11+); Homo sapiens, JeKo-1, 72 h) [µM]",viability at 20 µM (Jeko-1 (SOX11+); [1]) [%],"Jeko-1 Viability at 20 μM (%) (Jeko-1 (SOX11+); 20 μM compound, 72 hours, normalized to 0.2% DMSO, 20 µM)",IC50 (Jeko-1 (SOX11+); 72 hours) [µM]
Cc1ccc(NS(=O)(=O)c2ccc(NC(=O)c3ccc4c(c3)NC(=O)C(C)S4)cc2)cc1 (stereo not drawn),12.4,10,0.51,,
Cc1ccccc1NS(=O)(=O)c1ccc(NC(=O)c2ccc3c(c2)NC(=O)C(C)S3)cc1 (stereo not drawn),14.1,10,9.87,,
CC1Sc2ccc(C(=O)Nc3ccc(S(=O)(=O)Nc4ccc(F)cc4)cc3)cc2NC1=O (stereo not drawn),15.9,> 20,80.1,,
CC1Sc2ccc(C(=O)Nc3ccc(S(=O)(=O)N4CCCCC4)cc3)cc2NC1=O (stereo not drawn),3.63,8,7.38,,
CC1Sc2ccc(C(=O)Nc3ccc(S(=O)(=O)N4CCCC4)cc3)cc2NC1=O (stereo not drawn),138,8.5,2.97,,
CCN(CC)S(=O)(=O)c1ccc(NC(=O)c2ccc3c(c2)NC(=O)C(C)S3)cc1 (stereo not drawn),30.9,7.5,0.6,,
CC1Sc2ccc(C(=O)Nc3ccc(S(=O)(=O)Nc4ccccn4)cc3)cc2NC1=O (stereo not drawn),130,> 20,96.4,,
CC1Sc2ccc(C(=O)Nc3ccc(S(=O)(=O)Nc4cccnc4)cc3)cc2NC1=O (stereo not drawn),7.23,> 20,92,,
CC1Sc2ccc(C(=O)Nc3ccc(S(=O)(=O)NC4CC4)cc3)cc2NC1=O (stereo not drawn),18.9,7,14.9,,
CC1Sc2ccc(C(=O)Nc3ccc(S(=O)(=O)N(C)C(C)C)cc3)cc2NC1=O (stereo not drawn),38.9,8,0.92,,
CC(C)NS(=O)(=O)c1ccc(NC(=O)c2ccc3c(c2)NC(=O)C(C)S3)cc1 (stereo not drawn),9.79,8,20.3,,
CC1Sc2ccc(C(=O)Nc3ccc(S(=O)(=O)N4CCCCCC4)cc3)cc2NC1=O (stereo not drawn),2.63,7.5,0.46,,
CC1Sc2ccc(C(=O)Nc3cccc(S(=O)(=O)Nc4ccccc4)c3)cc2NC1=O (stereo not drawn),18.6,10,2.81,,
CC1Sc2ccc(C(=O)Nc3cccc(S(=O)(=O)N(C)C)c3)cc2NC1=O (stereo not drawn),69.5,8.5,1.43,,
CC1Sc2ccc(C(=O)Nc3ncc(S(=O)(=O)Nc4ccccc4)s3)cc2NC1=O (stereo not drawn),3.12,> 20,88,,
O=C(Nc1ccc2cccnc2c1)c1ccc(OCc2ccccc2)cc1,3.58,8,22.8,,
CN1C(=O)COc2ccc(C(=O)Nc3ccc(S(=O)(=O)N4CCCCC4)cc3)cc21,5.35,> 20,90.6,,
CN1C(=O)CSc2ccc(C(=O)Nc3ccc(CN4CCCCCC4)cc3)cc21,6.93,> 20,102,,

# The remaining compounds from weak to strong by Kd ((His)6-SOX11-DBD protein), led by results:
Kd ((His)6-SOX11-DBD protein) [µM],Structure (SMILES),"IC50 (Jeko-1 (SOX11+); Homo sapiens, JeKo-1, 72 h) [µM]",viability at 20 µM (Jeko-1 (SOX11+); [1]) [%],"Jeko-1 Viability at 20 μM (%) (Jeko-1 (SOX11+); 20 μM compound, 72 hours, normalized to 0.2% DMSO, 20 µM)",IC50 (Jeko-1 (SOX11+); 72 hours) [µM]
83.3,CC1Sc2ccc(C(=O)Nc3ccc(S(N)(=O)=O)cc3)cc2NC1=O (stereo not drawn),> 20,101,,
41.5,CC1Sc2ccc(C(=O)Nc3cccc(S(=O)(=O)N4CCCCC4)c3)cc2NC1=O (stereo not drawn),10,0.6,,
38,CC1Sc2ccc(C(=O)Nc3ccc(S(=O)(=O)Nc4ccccc4)cc3)cc2NC1=O (stereo not drawn) [drawing 468],,,0.83,12.5
31.2,CCN(CC)S(=O)(=O)c1cccc(NC(=O)c2ccc3c(c2)NC(=O)C(C)S3)c1 (stereo not drawn),8,0.44,,
15.4,CC1Sc2ccc(C(=O)Nc3ccc(S(=O)(=O)N(C)C)cc3)cc2NC1=O (stereo not drawn),15,19.6,,
15.3,CC1Oc2ccc(C(=O)Nc3ccc(S(=O)(=O)Nc4ccccc4)cc3)cc2NC1=O (stereo not drawn),12,9.09,,
7.13,CC1Sc2ccc(C(=O)Nc3ccc(S(C)(=O)=O)cc3)cc2NC1=O (stereo not drawn),15,30.6,,
4.36,CC1Sc2ccc(C(=O)Nc3ccc(S(=O)(=O)Nc4ccccc4)c(Cl)c3)cc2NC1=O (stereo not drawn),5,1.8,,
3.1,CC1Sc2ccc(C(=O)Nc3ccc(S(=O)(=O)Nc4ccccc4)cc3Cl)cc2NC1=O (stereo not drawn),< 20,36.2,,
2.5,Cc1cc(NC(=O)c2ccc3c(c2)NC(=O)C(C)S3)ccc1S(=O)(=O)Nc1ccccc1 (stereo not drawn),10,1.22,,
1.43,CCC1Sc2ccc(C(=O)Nc3ccc(S(=O)(=O)Nc4ccccc4)cc3)cc2NC1=O (stereo not drawn),12,36.7,,
1.26,CC1Sc2ccc(C(=O)Nc3ccc(S(=O)(=O)Nc4cccc(F)c4)cc3)cc2NC1=O (stereo not drawn),< 20,28.2,,
1.16,Cc1cccc(NS(=O)(=O)c2ccc(NC(=O)c3ccc4c(c3)NC(=O)C(C)S4)cc2)c1 (stereo not drawn),11,0.58,,
0.861,CC1Sc2ccc(C(=O)Nc3ccc(S(=O)(=O)Nc4ccc(Cl)cc4)cc3)cc2NC1=O (stereo not drawn),15,9.99,,

# — US20230242496A1, “SOX11 INHIBITORS FOR TREATING MANTLE CELL LYMPHOMA” (Icahn School of Medicine At Mount Sinai, priority 2020, published 2023)
